Assay results reported in ChEMBL document CHEMBL1157872, “Theoretical models of pentamidine analogs activity based on their DNA minor groove complexes” (Eur J Med Chem, 2010).

Legend:
Nucleic Acid [1] = system: Nucleic Acid
Nucleic Acid [2] = assay: Binding affinity to d(CGCGATATCGCG)2 dodecamer assessed as change in melting temperature; assay type: nucleic-acid assay

Row | SMILES | ΔTm (Nucleic Acid [1]) | ΔTm (Nucleic Acid [2])
1 | N=C(N)c1ccc(OCCCCCOc2ccc(C(=N)N)cc2)cc1 | 4.65 °C | 6.58 °C
2 | COc1cc(C(=N)N)cc(OC)c1OCCCCCOc1c(OC)cc(C(=N)N)cc1OC | 2.35 °C | 2.55 °C
3 | Cn1cc(NC(=O)c2cc(NC(=O)CNC(=N)N)cn2C)cc1C(=O)NCCC(=N)N | 31 °C | –
4 | CCCNC(=N)c1ccc(-c2ccc(-c3ccc(C(=N)NCCC)cc3)o2)cc1 | 13 °C | –
5 | c1cc(-c2ccc(-c3ccc(C4=NCCN4)cc3)o2)ccc1C1=NCCN1 | 11.4 °C | –
6 | CCN1CCN=C1c1ccc(-c2ccc(-c3ccc(C4=NCCN4CC)cc3)o2)cc1 | 1.9 °C | –
7 | CN(CCCCCN(C)c1ccc(C(=N)N)cc1)c1ccc(C(=N)N)cc1 | 1.17 °C | 1.1 °C
8 | N=C(NC1CCCCC1)c1ccc(OCCOCCOc2ccc(C(=N)NC3CCCCC3)cc2)cc1 | 5.08 °C | 4.3 °C
9 | N=C(N)c1ccc(/N=N/Nc2ccc(C(=N)N)cc2)cc1 | – | 11.9 °C
10 | N=C(N)c1ccc(NCCNCCNc2ccc(C(=N)N)cc2)cc1 | 5.84 °C | 5.48 °C
11 | N=C(N)c1ccc(OCCOCCOc2ccc(C(=N)N)cc2)cc1 | 2.92 °C | 4.2 °C
12 | CCCCNC(=N)c1ccc(OCCOCCOc2ccc(C(=N)NCCCC)cc2)cc1 | 3.84 °C | 3.3 °C
13 | N=C(N)c1ccc(-c2ccc(-c3ccc(C(=N)N)cc3)o2)cc1 | 11.7 °C | –
